According to patent US6770596B1, “Fused tricyclic compounds, process for their preparation, and herbicidal compositions containing them” (Ishihara Sangyo Kaisha Ltd., priority 2002, dated 2004):

Tests used:
Assay type in all cases: in vivo
[1] = tested on: upland rice (Oryza sp., var.Tebonnet, RICE); test: Pre-emerge test, crop damage upland rice
How it was run: (§1)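 Sandy loam soil mix, 10 cm pots, sowing 1 d before treatment; spray volume 187 l/ha, rates 8–1000 g ai/ha in acetone; 0–100 visual rating at 14 d.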

[2] = tested on: soybean (Glycine max L., var. Pella 86, SOY); test: Pre-emerge test, crop damage soybean
How it was run: as §1

[3] = tested on: large crabgrass (Digitaria sanguinalis, DIS); test: Post-emerge test, large crabgrass; conditions: 250 g ai/ha, 14 days after application, rating scale 0-100 (0 no damage, 100 complete death)
How it was run: (§2)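 Foliar application, track sprayer with flat fan nozzle, 187 l/ha acetone + 0.25% v/v NIS, 8-1000 g ai/ha; plants at 2-3 leaves, sown 8-21 d before. Scored 0-100 at 14 DAA.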

[4] = tested on: lambsquarters (Chenopodium album, CHA); test: Pre-emerge test, lambsquarters; conditions: 250 g ai/ha, 14 days after application, rating scale 0-100 (0 no damage, 100 complete death)
How it was run: (§3)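 Pre-emerge greenhouse screen: sow, wait 1 d, spray acetone solution (8–1000 g ai/ha, 187 l/ha), rate injury 0–100 at 14 DAT.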

[5] = tested on: soybean (Glycine max L., var. Pella 86, SOY); test: Post-emerge test, crop damage soybean
How it was run: as §2

[6] = tested on: velvetleaf (Abutilon theophrasti, ABT); test: Pre-emerge test, velvetleaf; conditions: 250 g ai/ha, 14 days after application, rating scale 0-100 (0 no damage, 100 complete death)
How it was run: as §3

[7] = tested on: field corn (Zea mays L., var. Dekalb 535, CORN); test: Pre-emerge test, crop damage field corn
How it was run: as §1

[8] = tested on: ivyleaf morningglory (Ipomoea hederacea, IPH); test: Pre-emerge test, ivyleaf morningglory; conditions: 250 g ai/ha, 14 days after application, rating scale 0-100 (0 no damage, 100 complete death)
How it was run: as §3

[9] = tested on: redroot pigweed (Amaranthus retroflexus, AMR); test: Pre-emerge test, redroot pigweed; conditions: 250 g ai/ha, 14 days after application, rating scale 0-100 (0 no damage, 100 complete death)
How it was run: as §3

[10] = tested on: green foxtail (Setaria viridis, SEV); test: Pre-emerge test, green foxtail; conditions: 250 g ai/ha, 14 days after application, rating scale 0-100 (0 no damage, 100 complete death)
How it was run: as §3

[11] = tested on: common ragweed (Ambrosia artemisiifolia L., AML); test: Post-emerge test, common ragweed; conditions: 250 g ai/ha, 14 days after application, rating scale 0-100 (0 no damage, 100 complete death)
How it was run: as §2

[12] = tested on: johnsongrass (Sorghum halepense, SOH); test: Post-emerge test, johnsongrass; conditions: 250 g ai/ha, 14 days after application, rating scale 0-100 (0 no damage, 100 complete death)
How it was run: as §2

[13] = tested on: large crabgrass (Digitaria sanguinalis, DIS); test: Pre-emerge test, large crabgrass; conditions: 250 g ai/ha, 14 days after application, rating scale 0-100 (0 no damage, 100 complete death)
How it was run: as §3

[14] = tested on: wheat (Triticum aestivum); test: Pre-emerge test, crop damage wheat
How it was run: as §1

[15] = tested on: sicklepod (Cassia obtusifolia, CAO); test: Pre-emerge test, sicklepod; conditions: 250 g ai/ha, 14 days after application, rating scale 0-100 (0 no damage, 100 complete death)
How it was run: as §3

[16] = tested on: johnsongrass (Sorghum halepense, SOH); test: Pre-emerge test, johnsongrass; conditions: 250 g ai/ha, 14 days after application, rating scale 0-100 (0 no damage, 100 complete death)
How it was run: as §3

[17] = tested on: barnyardgrass (Echinachloa crus-galli, ECC); test: Post-emerge test, barnyardgrass; conditions: 250 g ai/ha, 14 days after application, rating scale 0-100 (0 no damage, 100 complete death)
How it was run: as §2

[18] = tested on: sicklepod (Cassia obtusifolia, CAO); test: Post-emerge test, sicklepod; conditions: 250 g ai/ha, 14 days after application, rating scale 0-100 (0 no damage, 100 complete death)
How it was run: as §2

[19] = tested on: cocklebur (Xanthium strumariunt, XAS); test: Post-emerge test, cocklebur; conditions: 250 g ai/ha, 14 days after application, rating scale 0-100 (0 no damage, 100 complete death)
How it was run: as §2

[20] = tested on: lambsquarters (Chenopodium album, CHA); test: Post-emerge test, lambsquarters; conditions: 250 g ai/ha, 14 days after application, rating scale 0-100 (0 no damage, 100 complete death)
How it was run: as §2

[21] = tested on: cocklebur (Xanthium strumariunt, XAS); test: Pre-emerge test, cocklebur; conditions: 250 g ai/ha, 14 days after application, rating scale 0-100 (0 no damage, 100 complete death)
How it was run: as §3

[22] = tested on: ivyleaf morningglory (Ipomoea hederacea, IPH); test: Post-emerge test, ivyleaf morningglory; conditions: 250 g ai/ha, 14 days after application, rating scale 0-100 (0 no damage, 100 complete death)
How it was run: as §2

[23] = tested on: redroot pigweed (Amaranthus retroflexus, AMR); test: Post-emerge test, redroot pigweed; conditions: 250 g ai/ha, 14 days after application, rating scale 0-100 (0 no damage, 100 complete death)
How it was run: as §2

[24] = tested on: wheat (Triticum aestivum); test: Post-emerge test, crop damage wheat
How it was run: as §2

[25] = tested on: green foxtail (Setaria viridis, SEV); test: Post-emerge test, green foxtail; conditions: 250 g ai/ha, 14 days after application, rating scale 0-100 (0 no damage, 100 complete death)
How it was run: as §2

[26] = tested on: common ragweed (Ambrosia artemisiifolia L., AML); test: Pre-emerge test, common ragweed; conditions: 250 g ai/ha, 14 days after application, rating scale 0-100 (0 no damage, 100 complete death)
How it was run: as §3

[27] = tested on: field corn (Zea mays L., var. Dekalb 535, CORN); test: Post-emerge test, crop damage field corn
How it was run: as §2

[28] = tested on: upland rice (Oryza sp., var.Tebonnet, RICE); test: Post-emerge test, crop damage upland rice
How it was run: as §2

[29] = tested on: barnyardgrass (Echinachloa crus-galli, ECC); test: Pre-emerge test, barnyardgrass; conditions: 250 g ai/ha, 14 days after application, rating scale 0-100 (0 no damage, 100 complete death)
How it was run: as §3

[30] = tested on: velvetleaf (Abutilon theophrasti, ABT); test: Post-emerge test, velvetleaf; conditions: 250 g ai/ha, 14 days after application, rating scale 0-100 (0 no damage, 100 complete death)
How it was run: as §2

[31] = var. Tebonnet, Oryza sp. (upland rice), in vivo, 14 days
[32] = var. Pella 86, Glycine max (soybean), in vivo, 14 days
[33] = var. Dekalb 535, Zea mays (field corn), in vivo, 14 days
[34] = Triticum aestivum (wheat), in vivo, 14 days
[35] = pre-emerge, 250 g ai/ha, 14 days after application, rating scale 0-100 (0 no damage, 100 complete death)
[36] = post-emerge, 250 g ai/ha, 14 days after application, rating scale 0-100 (0 no damage, 100 complete death)

| SMILES | Post-emerge Herbicidal Activity DIS (phytotoxicity rating) [3] | Pre-emerge Herbicidal Activity CHA (phytotoxicity rating) [4] | Pre-emerge Herbicidal Activity ABT (phytotoxicity rating) [6] | Pre-emerge Herbicidal Activity IPH (phytotoxicity rating) [8] | Pre-emerge Herbicidal Activity AMR (phytotoxicity rating) [9] | Pre-emerge Herbicidal Activity SEV (phytotoxicity rating) [10] | Post-emerge Herbicidal Activity AML (phytotoxicity rating) [11] | Post-emerge Herbicidal Activity SOH (phytotoxicity rating) [12] | Pre-emerge Herbicidal Activity DIS (phytotoxicity rating) [13] | Pre-emerge Herbicidal Activity CAO (phytotoxicity rating) [15] | Pre-emerge Herbicidal Activity SOH (phytotoxicity rating) [16] | Post-emerge Herbicidal Activity ECC (phytotoxicity rating) [17] | Post-emerge Herbicidal Activity CAO (phytotoxicity rating) [18] | Post-emerge Herbicidal Activity XAS (phytotoxicity rating) [19] | Post-emerge Herbicidal Activity CHA (phytotoxicity rating) [20] | Pre-emerge Herbicidal Activity XAS (phytotoxicity rating) [21] | Post-emerge Herbicidal Activity IPH (phytotoxicity rating) [22] | Post-emerge Herbicidal Activity AMR (phytotoxicity rating) [23] | Post-emerge Herbicidal Activity SEV (phytotoxicity rating) [25] | Pre-emerge Herbicidal Activity AML (phytotoxicity rating) [26] | further results |
| --- | --- | --- | --- | --- | --- | --- | --- | --- | --- | --- | --- | --- | --- | --- | --- | --- | --- | --- | --- | --- | --- |
| C[C@H]1Oc2cc(F)c(-c3nn(C)c(C(F)(F)F)c3Cl)c3c2N(CC(=O)N3)C1=O [1-48, 8-[4-Chloro-1-methyl-5-(trifluoromethyl)-1H-pyrazol-3-yl]-9-fluoro-2-R-methyl-5H-pyrazino[1,2,3-de]-1,4-benzoxazine-3,6(2H, 7H)-dione] | 50 | 100 | 100 | 100 | 100 | 100 | 80 | 30 | 100 | 100 | 100 | 95 | 65 | 100 | 100 | 60 | 100 | 100 | 98 | 99 | Pre-emerge crop damage RICE (phytotoxicity rating) [1, 31]: 55; Pre-emerge crop damage SOY (phytotoxicity rating) [2, 32]: 40; Post-emerge crop damage SOY (phytotoxicity rating) [5, 32]: 65; Pre-emerge crop damage CORN (phytotoxicity rating) [7, 33]: 70; Pre-emerge crop damage WHEAT (phytotoxicity rating) [14, 34]: 25; Post-emerge crop damage WHEAT (phytotoxicity rating) [24, 34]: 0; Post-emerge crop damage CORN (phytotoxicity rating) [27, 33]: 10; Post-emerge crop damage RICE (phytotoxicity rating) [28, 31]: 60; Pre-emerge Herbicidal Activity ECC (phytotoxicity rating) [29]: 100; Post-emerge Herbicidal Activity ABT (phytotoxicity rating) [30]: 100 |
| CCC1C(=O)Nc2c3c(cc(F)c2-n2nc(C)n(C(F)F)c2=O)OCC(=O)N31 (stereo not drawn) [1-75] | 0 | 100 | 100 | 99 | 50 | 99 | 45 | 0 | 100 | 65 | 100 | 0 | 0 | 20 | 80 | 85 | 80 | 0 | 0 | 85 | Pre-emerge crop damage RICE (phytotoxicity rating) [1, 35]: 99; Pre-emerge crop damage SOY (phytotoxicity rating) [2, 35]: 98; Post-emerge crop damage SOY (phytotoxicity rating) [5, 36]: 55; Pre-emerge crop damage CORN (phytotoxicity rating) [7, 35]: 100; Pre-emerge crop damage WHEAT (phytotoxicity rating) [14, 35]: 10; Post-emerge crop damage WHEAT (phytotoxicity rating) [24, 36]: 0; Post-emerge crop damage CORN (phytotoxicity rating) [27, 36]: 0; Post-emerge crop damage RICE (phytotoxicity rating) [28, 36]: 40; Pre-emerge Herbicidal Activity ECC (phytotoxicity rating) [29]: 100; Post-emerge Herbicidal Activity ABT (phytotoxicity rating) [30]: 90 |
| O=C1Nc2c(-c3ncc(C(F)(F)F)cc3Cl)c(F)cc3c2N(C(=O)CO3)C1c1ccccc1 (stereo not drawn) [1-68] | 0 | 100 | 99 | 40 | 100 | 100 | 40 | 0 | 100 | 40 | 99 | 0 | 0 | 60 | 100 | 30 | 60 | 100 | 0 | 65 | Pre-emerge crop damage RICE (phytotoxicity rating) [1, 35]: 0; Pre-emerge crop damage SOY (phytotoxicity rating) [2, 35]: 5; Post-emerge crop damage SOY (phytotoxicity rating) [5, 36]: 10; Pre-emerge crop damage CORN (phytotoxicity rating) [7, 35]: 5; Pre-emerge crop damage WHEAT (phytotoxicity rating) [14, 35]: 30; Post-emerge crop damage WHEAT (phytotoxicity rating) [24, 36]: 0; Post-emerge crop damage CORN (phytotoxicity rating) [27, 36]: 10; Post-emerge crop damage RICE (phytotoxicity rating) [28, 36]: 0; Pre-emerge Herbicidal Activity ECC (phytotoxicity rating) [29]: 98; Post-emerge Herbicidal Activity ABT (phytotoxicity rating) [30]: 80 |
